Measured values reported in the supplement of paper PMC11451515.

Test system: SEM cells
Test: cell viability relative to DMSO control; higher = less cytotoxic
Details: 48 h
Outline: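 NOMO1, SEM and P12-Ichikawa leukemia cells spent at least four passages adapting to each medium before use. They were seeded at 500 cells/well (NOMO1, SEM) or 1000 cells/well (P12-Ichikawa) in 5 μl in 1536-well plates and pin-dosed with library compounds in DMSO at 11 threefold steps from 47 μM down to 0.79 nM. After 48 h at 37°C, CellTiter-Glo One luminescence was read. Viability is reported as a percentage of the DMSO wells on each plate, with cell-free wells as background.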

[1] = HPLM + 10% dialyzed FBS, 0.000781 µM
[2] = HPLM + 10% dialyzed FBS, 0.00234 µM
[3] = HPLM + 10% dialyzed FBS, 0.00702 µM
[4] = HPLM + 10% dialyzed FBS, 0.0211 µM
[5] = HPLM + 10% dialyzed FBS, 0.0632 µM
[6] = HPLM + 10% dialyzed FBS, 0.19 µM
[7] = HPLM + 10% dialyzed FBS, 0.569 µM
[8] = HPLM + 10% dialyzed FBS, 1.71 µM
[9] = HPLM + 10% dialyzed FBS, 5.12 µM
[10] = HPLM + 10% dialyzed FBS, 15.4 µM
[11] = HPLM + 10% dialyzed FBS, 46.1 µM
[12] = RPMI 5 mM glucose + 10% FBS, 0.000781 µM
[13] = RPMI 5 mM glucose + 10% FBS, 0.00234 µM
[14] = RPMI 5 mM glucose + 10% FBS, 0.00702 µM
[15] = RPMI 5 mM glucose + 10% FBS, 0.0211 µM
[16] = RPMI 5 mM glucose + 10% FBS, 0.0632 µM
[17] = RPMI 5 mM glucose + 10% FBS, 0.19 µM
[18] = RPMI 5 mM glucose + 10% FBS, 0.569 µM
[19] = RPMI 5 mM glucose + 10% FBS, 1.71 µM
[20] = RPMI 5 mM glucose + 10% FBS, 5.12 µM
[21] = RPMI 5 mM glucose + 10% FBS, 15.4 µM
[22] = RPMI 5 mM glucose + 10% FBS, 46.1 µM
[23] = RPMI 5 mM glucose + 10% dialyzed FBS, 0.000781 µM
[24] = RPMI 5 mM glucose + 10% dialyzed FBS, 0.00234 µM
[25] = RPMI 5 mM glucose + 10% dialyzed FBS, 0.00702 µM
[26] = RPMI 5 mM glucose + 10% dialyzed FBS, 0.0211 µM
[27] = RPMI 5 mM glucose + 10% dialyzed FBS, 0.0632 µM
[28] = RPMI 5 mM glucose + 10% dialyzed FBS, 0.19 µM
[29] = RPMI 5 mM glucose + 10% dialyzed FBS, 0.569 µM
[30] = RPMI 5 mM glucose + 10% dialyzed FBS, 1.71 µM
[31] = RPMI 5 mM glucose + 10% dialyzed FBS, 5.12 µM
[32] = RPMI 5 mM glucose + 10% dialyzed FBS, 15.4 µM
[33] = RPMI 5 mM glucose + 10% dialyzed FBS, 46.1 µM

Row | SMILES | cell viability [1] | cell viability [2] | cell viability [3] | cell viability [4] | cell viability [5] | cell viability [6] | cell viability [7] | cell viability [8] | cell viability [9] | cell viability [10] | cell viability [11] | cell viability [12] | cell viability [13] | cell viability [14] | cell viability [15] | cell viability [16] | cell viability [17] | cell viability [18] | cell viability [19] | cell viability [20] | cell viability [21] | cell viability [22] | cell viability [23] | cell viability [24] | cell viability [25] | cell viability [26] | cell viability [27] | cell viability [28] | cell viability [29] | cell viability [30] | cell viability [31] | cell viability [32] | cell viability [33]
1 | CCOC(=O)C(C)OC1=CC=CC2=C1\C=C/N(CC(=O)NC3=CC=C4OCCOC4=C3)C2=O (configuration not stated) | 77.7% | 85.4% | 92.1% | 93% | 102% | 92.3% | 92.4% | 97.4% | 103% | 100% | 102% | 80.1% | 87.8% | 88% | 88% | 93.2% | 90.2% | 93.5% | 95% | 109% | 98.1% | 92.6% | 90.1% | 94.9% | 102% | 89% | 85.4% | 98% | 99.2% | 104% | 99.1% | 88.2% | 112%
2 | CN1\C=N/C2=CC=C(NC3=CC(=CC=C3C)NC(=O)C4=CC(=CC=C4)C(C)(C)C#N)C=C2C1=O | 101% | 93.6% | 112% | 117% | 107% | 101% | 87.4% | 95.5% | 74.8% | 79.4% | 44.1% | 113% | 122% | 107% | 114% | 113% | 105% | 101% | 96.7% | 87.7% | 84.2% | 31.9% | 93.6% | 97.9% | 92.4% | 115% | 101% | 107% | 101% | 102% | 70% | 75.8% | 34.9%
3 | Nc1c2c(nc3ccccc13)CCCC2 | 92.9% | 104% | 118% | 109% | 115% | 118% | 101% | 25.6% | 108% | 108% | 86.1% | 121% | 123% | 122% | 109% | 111% | 112% | 97.3% | 17.5% | 100% | 118% | 80.5% | 109% | 131% | 123% | 104% | 112% | 123% | 95.7% | 24.7% | 117% | 104% | 87.6%
4 | C[C@]12CC[C@H]3[C@@H](CCC4=CC(=O)CC[C@@H]43)[C@@H]1CC[C@@H]2OC(=O)CCc1ccccc1 | 83.2% | 22.9% | 101% | 93.8% | 100% | 98.5% | 94.3% | 99.6% | 85.9% | 91.4% | 93.6% | 116% | 24.5% | 123% | 111% | 116% | 115% | 108% | 122% | 110% | 120% | 114% | 99.4% | 26.5% | 107% | 122% | 112% | 109% | 104% | 123% | 100% | 125% | 113%
